This is an account of results in patent US4072683A, “3,4-Dihydrocarbostyril derivatives” (Otsuka Pharmaceutical Co., Ltd., priority 1974, dated 1978).

Each structure is given as a SMILES string. Like-named read-outs stand apart in the source and are kept apart here.

The inhibition is how much of the control response was suppressed. One may read the LD50 as the dose at which mortality reaches 50%. Read a high LD50 as a less toxic substance.

In one data set the test system is β-adrenergic nerves. As to the kind of experiment: Antagonistic activity against isoproterenol (β-adrenergic nerves blocking activity), anesthetized dogs. The class given is in vivo, Mongrel dogs. Particulars: Canis lupus familiaris, iv, isoproterenol 0.3 μg/kg, dog; for inhibition at 0.0001 mg/kg: 0.1 μg/kg i.v.; for inhibition at 0.001 mg/kg: 1.0 μg/kg i.v.; for inhibition at 0.01 mg/kg: 10 μg/kg i.v.; for inhibition at 0.1 mg/kg: 100 μg/kg i.v. As to the method:
For example, the antagonistic activity against isoproterenol (as an indication of β-adrenergic nerves blocking activity) of the 3,4-dihydrocarbostyril derivatives of the present invention was measured according to a method as described in R. D. Robson and H. R. Kaplan, "J. Pharmacol. Exp. Therap.," Vol. 175, page 157 (1970) as follows:
Mongrel dogs of both sexes weighing 9.7 - 19.0 kg were anesthetized with pentobarbital-Na (30 mg/kg, i.v.) and fixed on their back. Anesthesia was maintained by continuous intravenous infusion of pentobarbital-Na at a rate of 4 mg/kg/hour.
Arterial blood pressure was measured from the left femoral artery with a pressure transducer (Nihon Kohden, RP-3). The left femoral vein was cannulated for i.v. injection of drugs. Heart rate was measured with a tachometer (San-ei, type 2130) treggered by the R wave of ECG (Lead II). Blood pressure and heart rate were simultaneously recorded on an ink-writing recorder (San-ei, type 145).
Test drugs were cumulatively injected at intervals of 10 minutes after reproducibility test on the positive chronotropic and hypotensive actions of a submaximal dose of 0.3 μg/kg of isoproterenol. At the time when responses of blood pressure and heart rate to these test drugs were stabilized, at about 3 minutes after injection, isoproterenol 0.3 μg/kg was injected again. Their antagonistic activities were determined from difference between responses to isoproterenol before and after administration of the test drugs and expressed as % inhibition.

A short description of data set [1]: Hypotensive action, arterial blood pressure in anesthetized dogs. The class given is in vivo, Mongrel dogs. Particulars: cumulative, anesthetized dog. As to the method: Mongrel dogs of both sexes weighing 9.7 - 19.0 kg were anesthetized with pentobarbital-Na (30 mg/kg, i.v.) and fixed on their back. Anesthesia was maintained by continuous intravenous infusion of pentobarbital-Na at a rate of 4 mg/kg/hour. After the vinyl catheter was inserted in the left femoral vein, heparin sodium, 1000 U/kg, was intravenously injected in order to prevent blood coagulation. Arterial blood pressure was measured from the left femoral artery with a pressure transducer (Nihon Kohden, RP-3). Test drugs were dissolved in 0.9% physiological saline solution and then intravenously administered with the cumulative method at intervals of 5 - 10 minutes.

A short description of another data set: Acute toxicity (LD50). As to conditions: in vivo.
Where [2] appears, read: blood pressure, read-out: Antagonistic Activity against Isoproterenol (% Inhibition of changes in BP).
Setting [3] is: heart rate, read-out: Antagonistic Activity against Isoproterenol (% Inhibition of changes in HR).

Take `CC(C)(C)NCC(O)COc1ccc(OCc2ccccc2)c2c1CCC(=O)N2` (centres unmarked) [drawing 14]: in the data set with β-adrenergic nerves (setting [2]), the inhibition at 0.0001 mg/kg was found to be 20%, the inhibition at 0.001 mg/kg is 10.9%, the inhibition at 0.01 mg/kg came to 12.6% and the inhibition at 0.1 mg/kg turned out to be 8.4%. Moreover, in the data set on β-adrenergic nerves (setting [3]), the inhibition at 0.0001 mg/kg came to 13.5%, the inhibition at 0.001 mg/kg is 13.5%, the inhibition at 0.01 mg/kg is 21.4% and the inhibition at 0.1 mg/kg worked out at 65.4%.

With `CC(C)(C)NCC(O)COc1ccc(OCc2ccccc2)c2c1CCC(=O)N2` (centres unmarked) [drawing 17], the “Hypotensive Action (Blood Pressure mmHg)” value in data set [1] (0.1 μg/kg i.v.) was -1.0 mmHg; in data set [1] (1.0 μg/kg i.v.), -4.5 mmHg; in data set [1] (10 μg/kg i.v.), -10.5 mmHg; in data set [1] (100 μg/kg i.v.), -16.0 mmHg.

Consider `CC(C)(C)NCC(O)COc1ccc(O)c2c1CCC(=O)N2` (centres unmarked) [drawing 18], for which the figures for the LD50 in “Acute toxicity (LD50)” (iv) and in “Acute toxicity (LD50)” (po) were 94 mg/kg and 1380 mg/kg, respectively.

Take `COc1ccc(OCC(O)CNC(C)(C)C)c2c1NC(=O)CC2` (centres unmarked) [drawing 19]: the values for the LD50 in the data set “Acute toxicity (LD50)” (iv) and in the data set “Acute toxicity (LD50)” (po) were 83 mg/kg and 1210 mg/kg, respectively.

Consider `CC(C)(C)NCC(O)COc1ccc(O)c2c1CCC(=O)N2` (centres unmarked) [drawing 15], for which the “Hypotensive Action (Blood Pressure mmHg)” value is -1.6 mmHg in data set [1] (0.1 μg/kg i.v.), -5.4 mmHg in data set [1] (1.0 μg/kg i.v.), -11.8 mmHg in data set [1] (10 μg/kg i.v.) and -30.6 mmHg in data set [1] (100 μg/kg i.v.).

Regarding `CC(C)(C)NCC(O)COc1ccc(OCc2ccccc2)c2c1CCC(=O)N2` (centres unmarked) [drawing 20], the values for the LD50 in “Acute toxicity (LD50)” (iv) and in “Acute toxicity (LD50)” (po) were 80 mg/kg and 1150 mg/kg, respectively.

Turning to `COc1ccc(OCC(O)CNC(C)(C)C)c2c1NC(=O)CC2` (centres unmarked) [drawing 13], in the data set on β-adrenergic nerves (setting [2]), the inhibition at 0.0001 mg/kg turned out to be 40.6%, the inhibition at 0.001 mg/kg was found to be 54.4%, the inhibition at 0.01 mg/kg was 77.1% and the inhibition at 0.1 mg/kg turned out to be 82.2%. In addition, in the data set with β-adrenergic nerves (setting [3]), the inhibition at 0.0001 mg/kg is 7%, the inhibition at 0.01 mg/kg is 39.8% and the inhibition at 0.1 mg/kg was 80.5%.

Consider `COc1ccc(OCC(O)CNC(C)(C)C)c2c1NC(=O)CC2` (centres unmarked) [drawing 16], for which the “Hypotensive Action (Blood Pressure mmHg)” value is 0.0 mmHg in data set [1] (0.1 μg/kg i.v.), -2.0 mmHg in data set [1] (1.0 μg/kg i.v.), -3.5 mmHg in data set [1] (10 μg/kg i.v.) and -5.5 mmHg in data set [1] (100 μg/kg i.v.).

As for `CC(C)(C)NCC(O)COc1ccc(O)c2c1CCC(=O)N2` (centres unmarked) [drawing 12], in the data set on β-adrenergic nerves (setting [2]), the inhibition at 0.0001 mg/kg turned out to be 18.4%, the inhibition at 0.001 mg/kg amounted to 64.6%, the inhibition at 0.01 mg/kg was determined as 94.8% and the inhibition at 0.1 mg/kg was 100%. Further, in the data set with β-adrenergic nerves (setting [3]), the inhibition at 0.0001 mg/kg turned out to be 5.1%, the inhibition at 0.001 mg/kg turned out to be 44.5%, the inhibition at 0.01 mg/kg amounted to 97.5% and the inhibition at 0.1 mg/kg was 100%.
